Patent US10137171B2, “Methods of treatment using a pentapeptide derived from the C-Terminus of Glucagon-Like Peptide 1 (GLP-1)” (The General Hospital Corporation, priority 2011, dated 2018)
“Also recorded” adds a separate entry of the source. Where no end group is shown, it is not given here.

How the values were obtained:
diet-induced obese mice [1] = experiment: Fasting plasma glucose and insulin measurements; format: in vivo, mouse; details: 16 h fast, after 12 weeks infusion, 29 weeks on VHFD
From the text: FIGS. 5A-B are a pair of bar graphs showing that GLP-1(32-36)amide attenuates the development of fasting hyperglycemia and hyperinsulinemia in high fat-fed mice. Mice fed the VHFD develop hyperglycemia, hyperinsulinemia, diabetes, and insulin resistance during weeks 15 to 29 of diet-induced obesity (21-35 weeks of age, respectively). A 12-week infusion of either control vehicle or pentapeptide started at 17 weeks on high-fat diet (23 weeks of age). FIG. 5A: Fasting plasma glucose levels *p<0.0004 vehicle vs. GLP-1(32-36)a. FIG. 5B: Fasting insulin levels *p<0.042 vehicle vs. GLP-1(32-36)a. The studies are in mice fed a VHFD for 15 weeks, two weeks before beginning the continuous infusions of either control vehicle or pentapeptide. Continuous infusions of vehicle or pentapeptide GLP-1(32-36)amide were give during weeks 17 to 29 of diet (23 to 35 weeks of age). Weeks denoted on the ordinate scales refers to weeks of age. N=6 mice per group. Values are means+/−SEMs.
Plasma obtained by tail nick from mice fasted for 16 hrs was assayed for glucose by using the one touch ultra-mini glucometer (Life Scan, Johnson and Johnson company) and for insulin with a rat/mouse Elisa kit (Crystal Chem, Downers Grove, Ill.).
Fasting immunoreactive insulin levels: whole blood samples were spun in a refrigerated microfuge at 14,000 rpm for 10 minutes and transferred to a clean tube. […]

H4IIe hepatoma cells = experiment: ROS formation assay (H4IIe hepatoma cells); format: cell-based; details: 0.2 mM palmitate 24 hr, 100 pM peptide (FIG. 9B)
Description: FIG. 9B is a bar graph showing inhibition of the production of ROS in H4IIe hepatoma cells. BSA n=14. palmitate n=13. 32-36/palmitate n=12. *p<0.005 palmitate vs BSA, # p<0.03 palmitate vs GLP-1(32-36)a/palmitate
H4IIe cells were seeded in 12-well plates at a density of 1×10^4/well and incubated overnight in media containing 5.0 mM glucose. Media was then supplemented with 0.20 mM palmitate in BSA, with and without 100 pM GLP-1(32-36)amide and incubated for an additional 24 h. Intracellular ROS was measured by 5-(and 6)-carboxy-2′,7′-dichlorohydro-fluorescein diacetate (CM-H2DCFDA) (Molecular Probes) as follows. Cells were washed twice in HBSS (Hanks' Balance Salt Solution) and incubated with 10 uM CM-H2DCFDA for 45 minutes. The media were removed and cells were lysed. ROS was measured in the cell lysates using a spectrofluorometer (485 nm/535 nm). Data were normalized to values obtained from the cells treated with palmitate. BSA n=14. Palmitate n=13. 32-36/Palmitate n=12.

diet-induced obese mice [2] = experiment: Liver triglyceride content; format: in vivo, mouse
Description: FIGS. 6A-B are bar graphs showing that infusions of GLP-1(32-36)amide in mice prevent the accumulation of triglyceride in the livers of mice fed a very high-diet (VHFD). Triglyceride contents of samples of livers of mice fed a high-fat diet (VHFD) for 32 weeks (age 38 weeks). 6A. Triglyceride levels of pentapeptide-infused obese mice as a percent of the vehicle-infused control mice set at 100%. *p<0.005. 6B. Triglyceride content levels of 60.5+/−12.1 mg/mg protein. Infusion of the pentapeptide lowered the triglyceride content by 65% to 21.1+/−5.6 mg/mg protein, indistinguishable from the values in the livers of lean mice fed low-fat chow (21.6+/−7 mg/mg protein). Data from diet-induced obese mice infused with the nonapeptide, GLP-1(28-36)amide for 16 weeks are also shown. Values are represented as % of vehicle control infused mice fed a high-fat diet (VHFD). *p<0.005, peptide vs. vehicle. N=6 mice per group. Values are means+/−SEMs.
Representative samples (2-3 gms) of livers were obtained and quick frozen on solid CO2 at the time of sacrifice and necropsy. The samples were subsequently homogenized and triglycerides were extracted and measured using a colorimetric enzymatic assay (Serum Triglyceride Determination kit, Sigma).

diet-induced obese mice [3] = experiment: Plasma circulating glycerol and triglyceride (FIG. 6C); format: in vivo, mouse; details: 16 weeks continuous infusion, 60% fat diet 24 weeks (FIG. 6C)
From the text: FIG. 6C is a table showing continuous infusion of GLP-1(32-36)amide for 16-weeks improves plasma circulating levels of glycerol and triglyceride in mice fed on a 60% fat diet (VHFD) for 24-weeks. *p<0.02, peptide vs. vehicle; **p<0.008 peptide vs. vehicle.

diet-induced obese mice [4] = experiment: Dual energy X-ray absorptiometry (DXA) of lean, fat and total body mass; format: in vivo, mouse
From the text: FIGS. 2A-D are bar graphs showing the results of determinations of lean, fat, and total body mass by dual X-ray absorptiometry (DXA) of mice receiving continuous infusions of the pentapeptide […] or control vehicle alone for 16 weeks. At the time of the study the mice were 39 weeks of age and on the very high fat diet for 33 weeks. 2A. Fat versus lean mass. The fat mass is 40% less in the pentapeptide infused compared to the control vehicle infused mice. *P<0.0008. […] 2B. Total body mass (lean+fat) differences in peptide infused versus vehicle control infused obese mice. *P<0.002. 2C. Fat mass expressed as the fraction of fat mass in peptide infused mice versus vehicle control infused obese mice. *P<0.0008. 2D. Fat mass expressed as the percentage of body weight, peptide-infused versus vehicle control-infused obese mice. *P<0.001. N=6 mice per group. Values are means+/−SEMs.
Mice were anesthetized with 0.02 ml of a 2% tribromoethanol solution per gram of body weight and scanned with a dual X-ray apparatus (Lunar Piximus, GE Medical Systems, Wauwatosa, Wis.). Total, fat, and lean body mass was quantitatively determined.

[5] = after 16 weeks infusion, VHFD mice (FIG. 2A)

**Q.** Which results are given for “LVKGRamide (LVKGR-NH2) [GLP-1(32-36)amide, pentapeptide derived from the C-terminus of the glucoincretin hormone GLP-1]”?
**A.** fasting plasma glucose (diet-induced obese mice [1]; vehicle 8.8 (FIG. 5A)): 5.5 mM; fasting plasma insulin (diet-induced obese mice [1]; vehicle 300 (FIG. 5B)): 250 pM; ROS production (H4IIe hepatoma cells): nearly completely normalizes; ROS production (H4IIe hepatoma cells; listed as GLP-1(32-36)a): inhibition; liver triglyceride as percent of vehicle control set at 100% (diet-induced obese mice [2]; VHFD mice (FIG. 6A)): 35%; liver triglyceride content decrease compared to vehicle (diet-induced obese mice [2]; VHFD mice, pentapeptide infusion (FIG. 6A, 6B)): 65%; liver triglyceride content (diet-induced obese mice [2]; VHFD mice, vehicle 60.5+/-12.1, lean low-fat diet mice 21.6+/-7 (FIG. 6B)): 21.1+/−5.6 mg/mg protein; plasma circulating levels of glycerol and triglyceride (diet-induced obese mice [3]): improves; also recorded: lowered; relative (%) fat mass compared to vehicle-treated mice (DXA) (diet-induced obese mice [4]; after 16 weeks infusion (FIG. 2C)): decreased; fat mass reduction compared to vehicle control (DXA) (diet-induced obese mice [4]; [5]): 40%; lean mass change compared to vehicle control (DXA) (diet-induced obese mice [4]; [5]): no significant difference; lean mass change compared to vehicle control (DXA) (diet-induced obese mice [4]; after 16 weeks infusion, VHFD mice (FIG. 2A), listed as pentapeptide): no significant changes; also recorded: no significant difference; total body mass (body weight) (DXA) (diet-induced obese mice [4]; after 16 weeks infusion, vs vehicle (FIG. 2B)): decreased; ratio of fat mass to body weight (DXA) (diet-induced obese mice [4]; after 16 weeks infusion, vs vehicle (FIG. 2D)): decreased
